The target in data set [1] is T1, VMAT2 (Homo sapiens, UniProt Q05940). Description: hVMAT2 [3H]DTBZ ([3H]DHTB) binding assay. Also on record: expressed in transfected cells; host or cells: HEK (human embryonic kidney) cells. The method, then: (§1) Membrane preparation for binding, uptake and release assays using HEK-hVMAT2 cells: Human embryonic kidney cells expressing the human vesicular monoamine transporter 2 (HEK-hVMAT2) were used. HEK-hVMAT2 cells were grown until confluent. The media was removed from plates, solution A [sucrose (0.32 M) with protease inhibitors] was added to the plate, and cells were scraped from plate. Cells were homogenized with 12 strokes of a glass/glass homogenizer. The homogenate was centrifuged at 800×g for 10 min. The supernatant was removed and saved, and the pellet was resuspended, homogenized and centrifuged as above. The supernatants were combined and centrifuged at 10,000×g for 20 min. The pellet was resuspended in solution A (0.75 ml). The membranes were osmotically shocked by addition of 2.625 ml ice cold water and homogenized by 5 strokes of a glass/Teflon homogenizer. The osmolarity was reestablished with addition of Tris (338 μl, 0.25M, pH 7.4 at 4° C.), sodium potassium tartrate (338 μl, 1.0 M), and MgSO4 (4 μl, 0.9M). The homogenate was centrifuged at 20,000×g for 20 min.
Binding was terminated by filtration over Whatman GF/C filters using a Tomtec 96-well cell harvester. Filters were washed for six seconds with ice-cold saline. Scintillation fluid was added to each square and radioactivity remaining on the filters was determined using a Wallac μ- or beta-plate reader. Specific binding was defined as the difference in binding observed in the presence and absence of Ro4-1284 (10 μM, generously supplied by Hoffman LaRoche). Three or more independent competition experiments were conducted with duplicate determinations.

In data set [2] the target is T1, VMAT2. Description: hVMAT2 5HT Uptake. In kind it is biochemical. On the set-up: expressed in transfected cells; host or cells: HEK (human embryonic kidney) cells. The method, then: as §1
Where [3] appears, read: cells printed in μM under a head in nM, HEK-hVMAT2 membranes.
[4] abbreviates: cells printed in μM under a head in nM, read-out: hVMAT2 5HT Uptake IC50 (nM) ± SEM.
Setting [5] is: [^3H]5HT uptake, HEK-hVMAT2 preparation, read-out: hVMAT2 5HT Uptake IC50 (nM) ± SEM.
Setting [6] is: HEK-hVMAT2 membranes, series 5 ligands tested as hydrochloride salts.

Structures can show the parent of a compound that is named as a salt. Where two headings read alike, the source gives them in different places.

T1 sequence (Q05940 whole entry): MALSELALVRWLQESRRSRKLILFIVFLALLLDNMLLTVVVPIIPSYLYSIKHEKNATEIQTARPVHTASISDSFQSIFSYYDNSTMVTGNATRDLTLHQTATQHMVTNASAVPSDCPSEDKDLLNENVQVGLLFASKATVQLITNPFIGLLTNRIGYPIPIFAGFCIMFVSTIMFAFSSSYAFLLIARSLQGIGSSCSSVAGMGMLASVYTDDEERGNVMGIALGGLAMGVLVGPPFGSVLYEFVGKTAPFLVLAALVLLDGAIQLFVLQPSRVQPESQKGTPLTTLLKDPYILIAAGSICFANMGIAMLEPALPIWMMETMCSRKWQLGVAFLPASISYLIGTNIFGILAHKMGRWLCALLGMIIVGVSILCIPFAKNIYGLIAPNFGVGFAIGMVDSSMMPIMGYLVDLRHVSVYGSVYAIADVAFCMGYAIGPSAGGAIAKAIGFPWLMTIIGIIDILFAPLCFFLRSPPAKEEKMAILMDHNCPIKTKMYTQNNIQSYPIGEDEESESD

For `CCOC(=O)C1=C(c2ccc(F)cc2)CCN(CCn2c(=O)[nH]c3ccccc3c2=O)C1`, the melting point is 150 to 152 °C.

`O=c1[nH]c2ccccc2c(=O)n1CCN1CC=C(c2ccc(F)cc2)CC1` gave a melting point of 208 °C.

`CCOC(=O)C1=C(c2ccccc2C(F)(F)F)CCN(CCn2c(=O)[nH]c3ccccc3c2=O)C1` (as salt: HCl) [Compound 5hh, Ethyl 1-(2-(2,4-dioxo-1,2-dihydroquinazolin-3(4H)-yl)ethyl)-4-(2-(trifluoromethyl)phenyl)-1,2,5,6-tetrahydropyridine-3-carboxylate] yielded a melting point of 153.5 to 154.5 °C.

With `CCOC(=O)[C@H]1CN(CCn2c(=O)[nH]c3ccccc3c2=O)CC[C@H]1c1cccc(N(C)C)c1` (racemic) (as salt: HCl) [Compound 5aa, (±)-syn-Ethyl 4-(3-(dimethylamino)phenyl)-1-(2-(2,4-dioxo-1,2-dihydroquinazolin-3(4H),-yl)ethyl) piperidine-3-carboxylate], the melting point fell in the range of 179 to 180 °C.

The compound `CCOC(=O)[C@H]1CN(CCn2c(=O)[nH]c3ccccc3c2=O)CC[C@H]1c1ccccc1N(C)C` (racemic) (as salt: HCl) [Compound 5bb, (±)-syn-Ethyl 4-(2-(dimethylamino)phenyl)-1-(2-(2,4-dioxo-1,2-dihydroquinazolin-3(4H),-yl)ethyl) piperidine-3-carboxylate] registered a melting point of 208 to 209 °C.

`CCOC(=O)[C@H]1CN(CCn2c(=O)[nH]c3ccccc3c2=O)CC[C@H]1c1ccc(OC)c(OC)c1` (racemic) (as salt: HCl) [Compound 5dd, (±)-syn-Ethyl 4-(3,4-dimethoxyphenyl)-1-(2-(2,4-dioxo-1,2-dihydroquinazolin-3(4H),-yl)ethyl) piperidine-3-carboxylate] displayed a melting point of 154.5 to 155.5 °C.

`CCOC(=O)[C@H]1CN(CCn2c(=O)[nH]c3ccccc3c2=O)CC[C@H]1c1ccc(O)c(O)c1` (racemic) (as salt: HCl) [Compound 5ff, (±)-syn-Ethyl 4-(3,4-dihydroxyphenyl)-1-(2-(2,4-dioxo-1,2-dihydroquinazolin-3(4H)-yl)ethyl)piperidine-3-carboxylate] displayed a melting point of 167 to 168.5 °C.

For `CCOC(=O)[C@H]1CN(CCn2c(=O)[nH]c3ccccc3c2=O)CC[C@H]1c1ccc2c(c1)OCCO2` (racemic) (as salt: HCl) [Compound 5gg, (±)-syn-Ethyl 4-(2,3-dihydrobenzo[b][1,4]dioxin-6-yl)-1-(2-(2,4-dioxo-1,2-dihydroquinazolin-3(4H)-yl)ethyl)piperidine-3-carboxylate], the melting point lay within 178 to 179 °C.

In turn, `CCOC(=O)[C@H]1CN(CCn2c(=O)[nH]c3ccccc3c2=O)CC[C@H]1c1ccc(OC(F)(F)F)cc1` (racemic) (as salt: HCl) [Compound 5ii, (±)-syn-ethyl 1-(2-(2,4-dioxo-1,2-dihydroquinazolin-3(4H)-yl)ethyl)-4-(4-(trifluoromethoxy)phenyl)piperidine-3-carboxylate] came in with a melting point of 150 to 151.5 °C.

As for `CCOC(=O)[C@H]1CN(CCn2c(=O)[nH]c3ccccc3c2=O)CC[C@H]1c1ccccc1N(C)C` (racemic) [Compound 5bb, (±)-syn-Ethyl 4-(2-(dimethylamino)phenyl)-1-(2-(2,4-dioxo-1,2-dihydroquinazolin-3(4H),-yl)ethyl) piperidine-3-carboxylate], on VMAT2 [1] (setting [3]), the Ki was greater than 6 µM. For the same compound, at VMAT2 [2] (setting [4]), the IC50 was greater than 2 µM.

On VMAT2 [1] (setting [3]), `CCOC(=O)[C@H]1CN(CCn2c(=O)[nH]c3ccccc3c2=O)CC[C@H]1c1cccc(N=[N+]=[N-])c1` (racemic) [Compound 5cc, (±)-syn-Ethyl 4-(3-azidophenyl)-1-(2-(2,4-dioxo-1,2-dihydroquinazolin-3(4H)-yl)ethyl)piperidine-3-carboxylate] had a Ki greater than 7 µM. The IC50 at VMAT2 [2] (setting [5]) is 0.074 ± 0.011 µM.

Regarding `CCOC(=O)[C@H]1CN(CCn2c(=O)[nH]c3ccccc3c2=O)CC[C@H]1c1ccc(OC)c(OC)c1` (racemic) [Compound 5dd, (±)-syn-Ethyl 4-(3,4-dimethoxyphenyl)-1-(2-(2,4-dioxo-1,2-dihydroquinazolin-3(4H),-yl)ethyl) piperidine-3-carboxylate], on VMAT2 [1] (setting [3]), the Ki was greater than 10 µM. Besides, at VMAT2 [2] (setting [4]), the IC50 was greater than 3 µM.

As to `CCOC(=O)[C@H]1CN(CCn2c(=O)[nH]c3ccccc3c2=O)CC[C@H]1c1ccc(O)c(O)c1` (racemic) [Compound 5ff, (±)-syn-Ethyl 4-(3,4-dihydroxyphenyl)-1-(2-(2,4-dioxo-1,2-dihydroquinazolin-3(4H)-yl)ethyl)piperidine-3-carboxylate], on VMAT2 [2] (setting [5]), the IC50 came out at 0.333 ± 0.085 µM.

`CCOC(=O)[C@@H]1CN(CCn2c(=O)[nH]c3ccccc3c2=O)CC[C@@H]1c1ccc(C(N)=O)cc1` (racemic) [Compound 5i, (±) syn-ethyl 4-(4-carbamoylphenyl)-1-(2-(2,4-dioxo-1,2-dihydroquinazolin-3(4H)-yl)ethyl)piperidine-3-carboxylate] came in with a Ki at VMAT2 [1] (setting [3]) greater than 3 µM. The IC50 at VMAT2 [2] (setting [4]) is greater than 10 µM.

In turn, `CCOC(=O)[C@H]1CN(CCn2c(=O)[nH]c3ccccc3c2=O)CC[C@H]1c1ccc(OC(F)(F)F)cc1` (racemic) [Compound 5ii, (±)-syn-ethyl 1-(2-(2,4-dioxo-1,2-dihydroquinazolin-3(4H)-yl)ethyl)-4-(4-(trifluoromethoxy)phenyl)piperidine-3-carboxylate] yielded a Ki at VMAT2 [1] (setting [3]) greater than 5 µM.

Regarding `CCOC(=O)[C@H]1CN(CCn2c(=O)[nH]c3ccccc3c2=O)CC[C@H]1c1ccc(N)cc1` (racemic) [Compound 5mm, (±)-syn-Ethyl 4-(4-aminophenyl)-1-(2-(2,4-dioxo-1,2-dihydroquinazolin-3(4H),-yl)ethyl) piperidine-3-carboxylate], the Ki at VMAT2 [1] (setting [3]) was greater than 10 µM. The IC50 on VMAT2 [2] (setting [5]) worked out at 2.15 ± 0.237 µM.

Consider `CCOC(=O)[C@H]1CN(CCn2c(=O)[nH]c3ccccc3c2=O)CC[C@H]1c1cccc(OC)c1` (racemic) [Compound 5q, (±)-syn-Ethyl 1-(2-(2,4-dioxo-1,2-dihydroquinazolin-3(4H),-yl)ethyl)-4-(3-methoxyphenyl) piperidine-3-carboxylate], for which the Ki on VMAT2 [1] (setting [3]) is greater than 10 µM. Also, the IC50 on VMAT2 [2] (setting [5]) came to 0.18 ± 0.054 µM.

In turn, `CCOC(=O)[C@H]1CN(CCn2c(=O)[nH]c3ccccc3c2=O)CC[C@H]1c1ccc(OC)cc1` (racemic) [Compound 5r, (±)-syn-Ethyl 1-(2-(2,4-dioxo-1,2-dihydroquinazolin-3(4H),-yl)ethyl)-4-(4-methoxyphenyl) piperidine-3-carboxylate] returned a Ki on VMAT2 [1] (setting [3]) greater than 10 µM. In addition, the IC50 on VMAT2 [2] (setting [5]) turned out to be 0.036 ± 0.011 µM.

For `CCOC(=O)[C@H]1CN(CCn2c(=O)[nH]c3ccccc3c2=O)CC[C@H]1c1ccc(CC)cc1` (racemic) [Compound 5t, (±)-syn-Ethyl 1-(2-(2,4-dioxo-1,2-dihydroquinazolin-3(4H),-yl)ethyl)-4-(4-ethylphenyl) piperidine-3-carboxylate], the Ki at VMAT2 [1] (setting [6]) is greater than 8.4 µM. Also, the IC50 at VMAT2 [2] (setting [5]) is 0.906 ± 0.014 µM.

For the compound `CCOC(=O)[C@H]1CN(CCn2c(=O)[nH]c3ccccc3c2=O)CC[C@H]1c1ccc(C(C)C)cc1` (racemic) [Compound 5u, (±)-syn-Ethyl 1-(2-(2,4-dioxo-1,2-dihydroquinazolin-3(4H),-yl)ethyl)-4-(4-isopropylphenyl) piperidine-3-carboxylate], the Ki at VMAT2 [1] (setting [6]) was 1.62 ± 0.107 µM. Further, the IC50 on VMAT2 [2] (setting [5]) was determined as 0.684 ± 0.249 µM.

Regarding `CCOC(=O)[C@H]1CN(CCn2c(=O)[nH]c3ccccc3c2=O)CC[C@H]1c1cccc(C)c1` (racemic) [Compound 5y, (±)-syn-Ethyl 1-(2-(2,4-dioxo-1,2-dihydroquinazolin-3(4H),-yl)ethyl)-4-(m-tolyl)piperidine-3-carboxylate], the Ki on VMAT2 [1] (setting [6]) was greater than 6.2 µM. Moreover, the IC50 on VMAT2 [2] (setting [5]) amounted to 0.053 ± 0.01 µM.

For the compound `CCOC(=O)[C@H]1CN(CCn2c(=O)[nH]c3ccccc3c2=O)CC[C@H]1c1ccccc1C` (racemic) [Compound 5z, (±)-syn-Ethyl 1-(2-(2,4-dioxo-1,2-dihydroquinazolin-3(4H),-yl)ethyl)-4-(o-tolyl)piperidine-3-carboxylate], the Ki at VMAT2 [1] (setting [3]) was greater than 5 µM. Also, the IC50 on VMAT2 [2] (setting [5]) came out at 0.031 ± 0.003 µM.

Turning to `CCOC(=O)[C@H]1CN(CCn2c(=O)[nH]c3ccccc3c2=O)CC[C@H]1c1ccc(C)s1` [A1=CH3], the Ki at VMAT2 [1] was greater than 8 µM. Moreover, inhibition at VMAT2 [2] was half-maximal at 0.312 ± 0.018 µM (IC50).

Turning to `CCOC(=O)C1=C(c2ccccc2C(F)(F)F)CCN(CCn2c(=O)[nH]c3ccccc3c2=O)C1` [Compound 5hh, Ethyl 1-(2-(2,4-dioxo-1,2-dihydroquinazolin-3(4H)-yl)ethyl)-4-(2-(trifluoromethyl)phenyl)-1,2,5,6-tetrahydropyridine-3-carboxylate], at VMAT2 [2] (setting [5]), the IC50 was 0.328 ± 0.038 µM.

`O=C(c1ccc(F)cc1)C1CCN(CCn2c(=O)[nH]c3ccccc3c2=O)CC1` [R1=H, R2=H]: on VMAT2 [1] (setting [6]), the Ki was 0.119 ± 0.003 µM. In addition, on VMAT2 [2] (setting [5]), the IC50 is 0.142 ± 0.023 µM.

The melting point is the temperature of the solid-liquid transition. By Ki is commonly meant the dissociation constant of the complex between target and ligand, obtained from inhibition or displacement. Broadly, the IC50 is the concentration that inhibits the measured activity by half.

For the origin of these results see patent US9546151B2, “VMAT inhibitory compounds” (Oregon Health & Science University, priority 2014, dated 2017).
